Assay results from US12036298B2, “Skin care composition and method for treating post-acne marks” (The Procter & Gamble Company, priority 2021, dated 2024).
Values after ≈ are worked out from the molar mass of the structure shown.

Tests used:
physchem = format: physicochemical; conditions: for solubility: 20 °C
Text: (§1) The compositions herein include one or more solubilizers and/or co-solvents to help solubilize the HCA. […] Without being limited by theory, it is believed that the decreased solubility of an HCA at lower pH is due to reduced ability of the HCA to undergo the acid dissociation that forms the conjugate base species observed at higher pH levels. At pH 7, p-coumaric acid exists at approximately 99.6% in its base form; whereas at pH 3, the conjugate base form is only present at approximately […]. As a result of its relatively poor solubility, HCAs can form crystals in an aqueous, low-pH skin care composition. The HCA crystals may impart an undesirable feel to the composition during use (e.g., a rough or grainy feel). HCA crystal formation may also lead to a decrease in the efficacy of the HCA and/or other ingredients in the composition, and/or create an undesirable consumer perception of the skin care composition or manufacturer (e.g., poor quality).
In order to avoid the formation of HCA crystals in the present low-pH compositions, the HCA should have a solubility greater than the intrinsic solubility limit of the composition. […] In this example the HCA would likely crystalize. […] See, Bevill, et al., Polymorphic Cocrystals of Nutraceutical Compound p-Coumaric Acid with Nicotinamide: Characterization, Relative Solid-State Stability, and Conversion to Alternate Stoichiometries, Cryst. Growth Des. 2014, 14, 3, 1438-1448; 2014.

[1] = Fraction of p-coumaric acid present as conjugate base (acid dissociation) by pH; format: physicochemical; conditions: pH 3
Text: as §1

| Compound | solubility (physchem; pH 3, aqueous buffer) [µg/mL] | solubility (physchem; pH 7, aqueous buffer) [µg/mL] | conjugate base form present [1] | intrinsic solubility (physchem; pH 3.8) [µg/mL] |
| --- | --- | --- | --- | --- |
| O=C(O)/C=C/c1ccc(O)cc1 [p-coumaric acid] | 4000 (≈ 24.4 mM) | ~345000 (≈ 2100 mM) | approximately 13.4% |  |
| hydroxycinnamic acid [HCA] |  |  |  | 6800 |
